Data on 19 compounds can be found in patent EP2197279B1, “C10-SUBSTITUTED CAMPTOTHECIN ANALOGS” (BIONUMERIK PHARMACEUTICALS, INC., priority 2007, dated 2009).

pIC50: −log10 of the molar value. Where only a bound is given, the exact number is not on record here.

Data set [1] relates to A2780/WT (wild-type) cells. In words: Sulforhodamine B (SRB) cytotoxicity assay in A2780/WT cells. It is filed as cell-based. How it is done:
(§1) Each of the testing conditions used in this study in both A2780/WT (wild-type) and A2780/DX5 cells were repeated in five to fifteen experiments that were performed on separate days. Each experiment consisted of one microtiter plate with at least eight individual assays of a given drug treatment condition on the plate. The sulforhodamine B (SRB) assay was used to assess cytotoxicity and absorbance at 570 nm (A570) in order to calculate the percentage of cell control (or percent cell survival) for the various treatment conditions in the plate wells.
(§2) Roswell Park Memorial Institute (RPMI 1640) medium, fetal bovine serum (FBS), and L-glutamine were purchased from Gibco BRL. Drugs were dissolved in sterile dimethylsulfoxide (DMSO), from American Type Culture Collection (ATCC) for stock solutions (2.5 to 5.0 mM). Subsequent dilutions were made using cell culture medium (prior to adding the drug to cells). SRB was purchased from Sigma and dissolved in 1.0% acetic acid. Trichloroacetic acid was purchased from VWR International.
(§3) Cells were manipulated in a Class IIA/B3 Biological Safety Cabinet (Forma Scientific) and maintained at 37°C in a humidified atmosphere containing 5% CO2 in a water-jacketed cell culture incubator (Forma Scientific). Cells were counted using a Coulter-Zl counter (Beckman-Coulter). Following drug treatment, plates were washed using a Biomek 2000 station (Beckman) and, following exposure to SRB dye, plates were washed using an automated plate washer (Model EL404, Bio-Tek Instruments). Percentage of control was correlated to A570 values and determined using a Model EL800 plate reader (Bio-Tek Instruments).
(§4) Population doubling times for the two cell lines used in this study encompassed a total of five cell doublings corresponding to approximately 5 days for A2780/WT and A2780/DX5 cells. A2780/WT and A2780/DX5 cells were cultured in RPMI 1640 medium supplemented with 10% fetal bovine serum and 1 mM of L-glutamine. Both cell lines were maintained as monolayered cultures in T-25 or T-75 flasks and then seeded to microtiter plate wells for experiments described herein. Prior to SRB assays, cell viability was monitored by evaluation of microtiter plate wells. Dead cells detach and float while living cells remain attached to the bottom of the cell well.
(§5) The sulforhodamine B (SRB) cytotoxicity assay (see, Skehan P, et al., New colorimetric cytotoxicity assay for anticancer-drug screening. J. Natl. Cancer Inst. 82: 1107-1112 (1990)) was used to determine the cytotoxic effects of BNP1350, SN-38, topotecan, 9-NH2-CPT, and 9-NO2-CPT on cell growth in vitro. Briefly, after the medium was aspirated from individual plate wells, trichloroacetic acid (100 µL of 10.0% solution) was added to each well, and the plates were incubated at 4°C for at least 1 hour. The plates were washed five-times with water using an automated microplate washer (Model EL 404, Bio-Tek Instruments), SRB solution (100 µL of 0.4 grams SRB dissolved in 100 mL 1.0% acetic acid) was added, and plates remained at room temperature for 15 minutes. The plates were then washed five-times using acetic acid (1.0 percent), air dried, and bound dye was solubilized in Tris base (150 µL, 10 mM). Plates were agitated (gently) for 5 minutes and the absorbance values of the SRB dye-protein adduct at a 570 nm wavelength (A570) were determined using an automated microtiter plate reader equipped with an A570 filter (Model EL800, BioTek Instruments). Table VII. Summary of Cytotoxicity Experiments in A2780/WT and DX5 Cells

The subject of the next data set is A2780/DX5 cells. In words: Sulforhodamine B (SRB) cytotoxicity assay in A2780/DX5 cells. The format is cell-based. The conditions noted are these: for IC50 Ratio: A2780/DX5 versus A2780/WT; for pIC50: SRB assay. The protocol:
as §1, §2, §3, §4, §5
On the technique in general: In SRB staining, fixed cells bind dye roughly in proportion to their protein.

For another data set, the system named is human plasma proteins. Description: Percent of free camptothecin analogs in human plasma (dialysis, HPLC). The settings on record: 100 nM Compound Concentrations. The format is in vitro ADME. How it is done: Stocks of various camptothecin analogs were prepared in DMSO. […] Optimum HPLC detection conditions for each camptothecin analog were developed using traditional HPLC methods. Table VIII. Percent of Free Camptothecin Analogs in Human Plasma (100 nM Compound Concentrations)

The conditions of data set [2]: over the first 48 hours, IV camptothecin sodium; cited from earlier work.
In data set [3] the test system is Angiogenesis was induced by fibroblast growth factor. The settings on record: dose levels of 210 mg/kg; cited from earlier work.
For data set [4] the following is noted: clinical studies in Japan alone; cited from earlier work.
For data set [5] the following is noted: cited from earlier work.

In general, pIC50 refers to the negative decadic logarithm of the IC50, by convention in mol/L. Read a high pIC50 as a small IC50. For the compound “7-(2'-Trimethylsilanyl) ethyl-10-(4-moroholinecarbonyloxy) camptothecin [Compound 12]”, in data set [1], the pIC50 was 7.18. In the data set with A2780/DX5 cells, the “IC50 Ratio” value is 2.1 and the negative-log IC50 (pIC50) was 6.87.
In the case of “7-(2'-Trimethylsilanyl) ethyl-10-(ethoxycarbonylmethoxyl camptothecin [Compound 9]”, in data set [1], the negative logarithm of the IC50 (pIC50) is 7.13. In addition, in the data set with A2780/DX5 cells, the “IC50 Ratio” value came out at 1.7 and the pIC50 was 6.91.
As for `CC[C@@]1(O)C(=O)OCc2c1cc1n(c2=O)Cc2cc3ccccc3nc2-1` [CPT, (S)-4-Ethyl-4-hydroxy-1H-pyrano[3',4':6,7]indolizino[1,2-b]quinoline-3,14(4H,12H)-dione], the “Percent of Free CPTs” value in the data set on human plasma proteins was 0%. In addition, the “mean urine recovery of CPT” value in data set [2] is listed as 17.4%.
For `CCc1c2c(nc3ccc(OC(=O)N4CCC(N5CCCCC5)CC4)cc13)-c1cc3c(c(=O)n1C2)COC(=O)[C@]3(O)CC` [CPT-11, 7-ethyl-10-[4-(1-piperidino)-1-piperidino] carbonyloxy camptothecin], the neovascularization result in data set [3] is given as “significant reduction of neovascularization”. Besides, the “patient deaths directly attributable to drug toxicity” value in data set [4] is listed as “approximately 100”.
For `CC[C@@]1(O)C(=O)OCc2c1cc1n(c2=O)Cc2c-1nc1ccc(OC)cc1c2CC[Si](C)(C)C` [Compound 1, 7-(2'-Trimethylsilanyl) ethyl-10-methoxy camptothecin], the pIC50 was 7.77 in data set [1] and 7.66 with A2780/DX5 cells. Also, the “IC50 Ratio” value with A2780/DX5 cells turned out to be 1.3. For the same compound, the “Percent of Free CPTs” value with human plasma proteins stood at 3.5%.
Turning to `CC[C@@]1(O)C(=O)OCc2c1cc1n(c2=O)Cc2c-1nc1ccc(OCOC)cc1c2CC[Si](C)(C)C` [Compound 2, 7-(2'-Trimethylsilanyl) ethyl-10-methoxymethoxy camptothecin], in data set [1], the pIC50 was 7.36. In addition, in the data set with A2780/DX5 cells, the “IC50 Ratio” value stood at 1.5 and the pIC50 was 7.19.
In the case of `CC[C@@]1(O)C(=O)OCc2c1cc1n(c2=O)Cc2c-1nc1ccc(OCCCO)cc1c2CC[Si](C)(C)C` [Compound 3, 7-(2'-trimethylsilanyl) ethyl-10-(3'-hydroxypropoxy) camptothecin], in data set [1], the pIC50 was 7.82. In the data set with A2780/DX5 cells, the “IC50 Ratio” value came out at 2.5 and the pIC50 is 7.42. The “Percent of Free CPTs” value in the data set on human plasma proteins was found to be 6.8%.
For `CC[C@@]1(O)C(=O)OCc2c1cc1n(c2=O)Cc2c-1nc1ccc(OCCOC)cc1c2CC[Si](C)(C)C` [Compound 4, 7-(2'-Trimethylsilanyl)ethyl-10-(2'-methoxyethoxy) camptothecin], in that order: 7.15, 1.0, 7.15 and 6%.
Turning to `CC[C@@]1(O)C(=O)OCc2c1cc1n(c2=O)Cc2c-1nc1ccc(OC(C)C)cc1c2CC[Si](C)(C)C` [Compound 5, 7-(2'-Trimethylsilanyl) ethyl-10-isopropoxy camptothecin], the pIC50 in data set [1] was 7.06. Moreover, in the data set with A2780/DX5 cells, the “IC50 Ratio” value was 1.2 and the pIC50 is 6.99.
For `CCOc1ccc2nc3c(c(CC[Si](C)(C)C)c2c1)C(O)n1c-3cc2c(c1=O)COC(=O)[C@]2(O)CC` (stereo partly drawn) [Compound 6, 5-hydroxy-7-(2'-trimethylsilanyl) ethyl-10-ethoxy camptothecin], in that order: 6.80, 1.1 and 6.78.
`CC[C@@]1(O)C(=O)OCc2c1cc1n(c2=O)C(O)c2c-1nc1ccc(OCC(N)=O)cc1c2CC[Si](C)(C)C` (stereo partly drawn) [Compound 7, 5-Hydroxy-7-(2'-trimethylsilanyl) ethyl-10-amidomethoxy camptothecin]: the figures for the negative-log IC50 (pIC50) (in data set [1]; in the data set with A2780/DX5 cells) were 6.58 and below 6.19, respectively.
`CC[C@@]1(O)C(=O)OCc2c1cc1n(c2=O)Cc2c-1nc1ccc(OC(=O)N(C)C)cc1c2CC[Si](C)(C)C` [Compound 8, 7-(2'-trimethylsilanyl) ethyl-10-(dimethylcarbamoyloxy) camptothecin]: the negative-log IC50 (pIC50) was 7.26 in data set [1] and 7.21 in the data set on A2780/DX5 cells. In addition, the “IC50 Ratio” value with A2780/DX5 cells amounted to 1.1. Moreover, the “Percent of Free CPTs” value with human plasma proteins is given as 6.4%.
Turning to `CC[C@@]1(O)C(=O)OCc2c1cc1n(c2=O)Cc2c-1nc1ccc(OCC(N)=O)cc1c2CC[Si](C)(C)C` [Compound 10, 7-(2'-Trimethylsilanyl) ethyl-10-(amidomethyloxy) camptothecin], the results for the negative logarithm of the IC50 (pIC50) (in data set [1]; in the data set on A2780/DX5 cells) were 7.47 and 6.40, respectively. Also, in the data set on A2780/DX5 cells, the “IC50 Ratio” value worked out at 11.8. Besides, the “Percent of Free CPTs” value in the data set on human plasma proteins is listed as 25%.
In turn, `CC[C@@]1(O)C(=O)OCc2c1cc1n(c2=O)Cc2c-1nc1ccc(OC(=S)N(C)C)cc1c2CC[Si](C)(C)C` [Compound 13] had a pIC50 in data set [1] of 6.93. For the same compound, in the data set with A2780/DX5 cells, the “IC50 Ratio” value turned out to be 2.0 and the negative logarithm of the IC50 (pIC50) was 6.64.
For the compound `CCOc1ccc2nc3c(c(CC[Si](C)(C)C)c2c1)Cn1c-3cc2c(c1=O)COC(=O)[C@]2(O)CC` [Compound 14, 7-(2'-Trimethylsilanyl) ethyl-10-ethoxy camptothecin], the pIC50 in data set [1] was 7.85; in the data set with A2780/DX5 cells, 7.76. Besides, in the data set on A2780/DX5 cells, the “IC50 Ratio” value turned out to be 1.2.
For `CC[C@@]1(O)C(=O)OCc2c1cc1n(c2=O)Cc2c-1nc1ccc(OCC#N)cc1c2CC[Si](C)(C)C` [Compound 15, 7-(2'-Trimethylsilanyl) ethyl-10-cyanomethoxy camptothecin], in that order: 8.02, 7.72 and 2.0.
As to `CCc1c2c(nc3ccc(O)cc13)-c1cc3c(c(=O)n1C2)COC(=O)[C@]3(O)CC` [SN-38, 10-hydroxy-7-ethyl camptothecin], in the data set on human plasma proteins, the “Percent of Free CPTs” value worked out at 15%.
As to `CC[C@@]1(O)C(=O)OCc2c1cc1n(c2=O)Cc2cc3c(CN(C)C)c(O)ccc3nc2-1` [Topotecan, 9-dimethylaminomethyl-10-hydroxy camptothecin], in the data set with human plasma proteins, the “Percent of Free CPTs” value was 100%.
As to `CC[C@@](O)(C(=O)O)c1cc2n(c(=O)c1CO)Cc1cc3ccccc3nc1-2` [carboxylate form of CPT], the “reduction of anti-tumor activity” value in data set [5] (carboxylate form versus lactone) was “at least 10 fold”. Moreover, the “anti-tumor potency relative to the non-hydrolyzed lactone form of CPT” value in data set [5] (sodium hydroxide formulation, hydrolysed E-ring) was “approximately one-tenth or less”.
